The test system of data set [1] is JM (semi mature human T-cell from lymphoblastoid leukemia). Briefly: Cell growth (cytotoxicity) in JM cells. It counts as cell-based. The note with it: 5 days, read-out: IC50 (concentration of drug which reduces cell growth by 50%). Here is the method: (§1) The anti-HIV activities of AZT-Suc-GTP1 and AZT-Suc-GTP2 were also tested. Infected cells were incubated for 5 days with compound. Compounds were dissolved in DMSO and 5-fold dilutions were used. The following parameters were measured: syncytia formation, virus antigen gp120 production, cell survival. Cytotoxicity is also measured in uninfected cells.
(§2) JM (semi mature human T-cell from lymphoblastoid leukemia) infected with HIV-I U4550
IC50=concentration of drug which reduces cell growth by 50%.

Another data set deals with HIV-I U4550. The data set is described as follows: Anti HIV activity, Ag gp120 production in infected JM cells. The settings on record: JM cells infected with HIV-I U4550, 5 days; read-out: EC50 (concentration which reduces Ag gp120 by 50% in infected cell cultures). It counts as cell-based. Here is the method:
as §1, §2
EC50=concentration which reduces Ag gp120by 50% in infected cell cultures.

Data set [2] concerns JURKAT cells (acute T cell human leukemia). The note with it: for IC50 / activity (cytotoxicity) when delivered to cultures in ethanol: JURKAT; for IC50: drugs coated onto plates (Table 9); for activity (cytotoxicity) when delivered to cultures in ethanol: ethanol delivery. The procedure: The cytotoxicity of chlorambucil and chlorambucil fatty acid conjugates (CGTP1. P2 and P3) were tested in vitro with JURKAT cells (acute T cell human leukemia). Cells were incubated with drug and viability was determined by a colourmetric proliferation test. Cytotoxicity towards other cells lines was also tested (PC3 human prostate cancer cells, B16 mouse melanoma cells and human peripheral blood mononuclear cells).
JURKAT cells were seeded into 96-well plates at a density of 1.6×10^4 cells/200 μl complete RPMI ± drug and cultured for 64 h. A 1:3 split of confluent PC3 cells in a 75 cm^2 flask were seeded into a 96-well plate and cultured for 48 h in complete RPMI. Media was removed and complete RPMI ± drug was added to wells. Cells were further cultured for 72 h.
i) Ethanol. Drugs were dissolved in ethanol and added to culture media. The final concentration of ethanol in media was no greater than 1% (v/v). This delivery was used for experiments with JURKAT, PBMC, PC3 and B16 cell types.
ii) Coating of plates. Drugs were dissolved in ethanol and aliquots (up to 40 μl) were added to 90% (v/v) isopropanol. Solution (50 μl) was then added to wells of a 96-well plate and the solvent evaporated by heating at 37° C. Media ± cells was then added. This delivery was used for some experiments with JURKAT cells.
Viability was determined using the MTS assay (CellTiter 96TM AQueous Non-Radioactive Cell Proliferation Assay) from Promega. Reagent (40 μl) was added to each well and absorbance values at 490 nm were determined 1 to 4 h later. The effect of drug on cell viability was compared to cultures set up containing no drug (100% viability). Wells containing no cells were used to control for background absorbance (0% viability). Each concentration was tested in at least 3 wells. Concentrations necessary to cause a 50% inhibition of cellular growth of control cells (IC50) were calculated by linear regression.

Another data set concerns B16 melanoma cells. The data set is described as follows: Tumour Cytotoxicity Model (B16 melanoma in C57 mice). It counts as in vivo, C57 black mice. The arrangement: Mean (standard error) of B16 tumour volume adjusted for the variation in initial volume: scale not given here. The note with it: for Mean (standard error) of B16 tumour volume adjusted for the variation in initial volume: statistically modified tumour volume; for B16 Tumour Volume: individual mice. The procedure: Groups of C57 black mice were given an initiation dose of 2×10^5 B16 melanoma cells as an intradermal injection. The cells were suspended in MEM without serum. The abdomen was clipped and 100 μl of cells + MEM was injected. […] The tumours were measured with a micrometer and photographed just prior to the injection of drug (day 8-10).
The cytotoxic drugs and their fatty acid conjugates were dissolved or suspended in 4:1 soy bean oil:ethyl oleate. A 10 mg/ml or a 20 mg/ml solution of each parent drug or the fatty acid conjugate made to the same molar concentration as the parent drug was then injected into the same region as the tumour at a dose of 0.5 mg or 1 mg. The tumours were then photographed, measured and re-injected every two to three days.

For the next data set, the system named is UVB induced oedema. The data set is described as follows: UVB erythema assay (net skin fold thickness). The format is in vivo, Skh-1 hairless albino female mice.
Data set [3] concerns UVB induced immunosuppression. Briefly: Contact Hypersensitivity Assay (oxazolone, net ear swelling). It counts as in vivo, mice. The note with it: total 3 MED UVB. From the text: The assay used the method described in “Current Protocols in Immunology” (Vol 1, Section 4.2 Eds Coligan et al. (1991) NIH). The sensitiser was Oxazalone. Briefly this method was as follows:
UVB Radiation. Mice were irradiated with a single FL40SE UVB fluorescent tube (Oliphant) in a reflective batten, providing […] UVB radiation measured at target distance using an International Light IL1700 radiometer with a UVB detector sensitive between 250-315 nm. The mice received 0.1179 J/cm^2 UVB radiation, constituting 1 minimal erythemal dose (MED) as previously ascertained, on each of 3 consecutive days, being exposed unrestrained with the wire cage tops removed.
Induction of Systemic Contact Hypersensitivity. Test mice were exposed on the dorsum to 1 MED UVB radiation (or no UVB radiation) at the same hour on days 1, 2 and 3. On days 8 and 9, the mice (irradiated and non-irradiated) were sensitized by topical application to the abdominal skin of 0.1 ml of 3% (w/v) oxazolone (Sigma Chemical Co., St Louis, Mo.) freshly prepared in ethanol. On day 15, the pre-challenge ear thickness was measured using the spring micrometer, and the mice were then challenged by the application of 5 ul freshly prepared 3% oxazolone/ethanol solution to both surfaces of each pinna. Ear thickness was again measured repeatedly between 16-24 hours, and the maximum ear thickness was recorded. The net ear swelling was calculated as the difference between the average pre-challenge and the average post-challenge ear thickness for each treatment group. Statistical significance of the differences in net ear swelling between treatment groups was assessed with Student's t test.
The mice were painted with vehicle, 0.5 mg/mouse HC, 0.5 mg/mouse HC-Suc-GTP2. 1 mg/mouse 17-b HC-Suc-GTP3 or 17-b HC within 10 minutes post UVB exposure. A total of 3 MED of unshielded UVB was used. (Table 3)

Several values for one entry are separate records, joined by “and”; a condition that tells them apart may be missing. Identical values can stand only once. Some results are limits rather than exact numbers.

On to `O=c1[nH]cnc2c1ncn2[C@H]1CC[C@@H](CO)O1` [ddI, reference compound], for which the IC50 in data set [1] is greater than 100 µM. The EC50 in the data set on HIV-I U4550 was determined as 1 µM.
`CCCCCCCCCCCCCCCC(=O)OCC(CO)(COC(=O)CCCCCCCCCCCCCCC)NC(=O)CNC(=O)CCCc1ccc(N(CCCl)CCCl)cc1` [CGTP2] displayed an IC50 in data set [2] of 17.7 µM. Also, in data set [2], the “activity (cytotoxicity) when delivered to cultures in ethanol” value is recorded as “not observed”. Besides, the “difference in tumour volume from the Vehicle group (95% level)” value in the data set with B16 melanoma cells (0.5 mg and 1.0 mg groups) is “significant difference”. Besides, the “Mean (standard error) of B16 tumour volume adjusted for the variation in initial volume” value with B16 melanoma cells (13/11/95, 0.5 mg) was 2.39 (0.523); in the data set with B16 melanoma cells (13/11/95, 1.0 mg), 2.58 (0.523); in the data set on B16 melanoma cells (15/11/95, 0.5 mg), 4.07 (0.881); in the data set with B16 melanoma cells (15/11/95, 1.0 mg), 3.89 (0.819); with B16 melanoma cells (16/11/95, 0.5 mg) it was 4.84 (1.06); in the data set with B16 melanoma cells (16/11/95, 1.0 mg), 4.23 (0.98). The “Mean (standard error) of B16 tumour volume adjusted for the variation in initial volume” value was 4.90 (1.28) in the data set with B16 melanoma cells (17/11/95, 0.5 mg) and 4.84 (1.19) in the data set on B16 melanoma cells (17/11/95, 1.0 mg). Further, the “B16 Tumour Volume” value was 0.5 mm^2 and 1.0 mm^2 and 2.7 mm^2 in the data set on B16 melanoma cells (Day 1, drug dose 0.5 mg injected at tumour region); 14.1 mm^2 with B16 melanoma cells (Day 1, drug dose 0.5 mg injected at tumour region, listed as CCTP2); 8.2 mm^2 and 38.3 mm^2 in the data set on B16 melanoma cells (Day 1, drug dose 1.0 mg); 5 mm^2 with B16 melanoma cells (Day 1, drug dose 1.0 mg, listed as CCTP2); 0.3 mm^2 and 1 mm^2 and 0 mm^2 in the data set on B16 melanoma cells (Day 3, drug dose 0.5 mg); 27.4 mm^2 in the data set on B16 melanoma cells (Day 3, drug dose 0.5 mg, listed as CCTP2). The “B16 Tumour Volume” value was 32.7 mm^2 and 73.5 mm^2 in the data set with B16 melanoma cells (Day 3, drug dose 1.0 mg); 0 mm^2 and 7.7 mm^2 with B16 melanoma cells (Day 3, drug dose 1.0 mg, listed as CCTP2); 11.8 mm^2 and 19.1 mm^2 and 0.0 mm^2 in the data set on B16 melanoma cells (Day 5, drug dose 0.5 mg); 82.8 mm^2 in the data set on B16 melanoma cells (Day 5, drug dose 0.5 mg, listed as CCTP2); 111.9 mm^2 and 174.1 mm^2 in the data set with B16 melanoma cells (Day 5, drug dose 1.0 mg); 0 mm^2 and 38.3 mm^2 in the data set on B16 melanoma cells (Day 5, drug dose 1.0 mg, listed as CCTP2). Moreover, the “B16 Tumour Volume” value is 19.8 mm^2 and 13.6 mm^2 and 0 mm^2 in the data set with B16 melanoma cells (Day 6, drug dose 0.5 mg); 167.4 mm^2 with B16 melanoma cells (Day 6, drug dose 0.5 mg, listed as CCTP2); 108.4 mm^2 and 240.3 mm^2 in the data set with B16 melanoma cells (Day 6, drug dose 1.0 mg); 0 mm^2 and 61.6 mm^2 in the data set on B16 melanoma cells (Day 6, drug dose 1.0 mg, listed as CCTP2); 21.8 mm^2 and 35.1 mm^2 and 0 mm^2 with B16 melanoma cells (Day 7, drug dose 0.5 mg); 152.8 mm^2 with B16 melanoma cells (Day 7, drug dose 0.5 mg, listed as CCTP2). In addition, the “B16 Tumour Volume” value was 254.1 mm^2 and 215.0 mm^2 with B16 melanoma cells (Day 7, drug dose 1.0 mg); 0 mm^2 and 92.6 mm^2 with B16 melanoma cells (Day 7, drug dose 1.0 mg, listed as CCTP2).
As for `CCCCCCCCCCCCCCCC(=O)OCC(COC(=O)CCCCCCCCCCCCCCC)(COC(=O)CCCCCCCCCCCCCCC)NC(=O)CNC(=O)CCCc1ccc(N(CCCl)CCCl)cc1` [CGTP3, Chlorambucil-Gly-Tris-Tripalmitate], in data set [2], the IC50 stood at 30 µM and the “activity (cytotoxicity) when delivered to cultures in ethanol” value is on record as “not observed”.
On to `C[C@]12CCC(=O)C=C1CC[C@@H]1[C@@H]2[C@@H](O)C[C@@]2(C)[C@H]1CC[C@]2(O)C(=O)CO` [Hydrocortisone, hydrocortisone (cortisol or 17 hydroxy corticosterone), reference compound], for which the “protection from erythema and oedema” value in the data set with UVB induced oedema (0.5 mg/mouse topical in ethanol after 2 MED UVB, 24 h) is listed as roughly 100%. The “Mean Net Skin Fold Thickness” value is 102.7 ± 12.1 10^−2 mm with UVB induced oedema (0.5 mg/mouse topical in ethanol, applied Day −5 (5 days prior to UV exposure), 2MED UVB, measured 24 h); 10.4 ± 8.19 10^−2 mm with UVB induced oedema (0.5 mg/mouse topical, applied Day 0 after UV exposure, 2MED UVB); 100.9 ± 7.3 10^−2 mm in the data set with UVB induced oedema (0.5 mg/mouse topical, applied Day −3 (3 days prior to UV exposure), 2MED UVB); 7.9 ± 4.4 in the data set with UVB induced oedema (1 mg/mouse (1% w/v) topical, applied Day 0 after UV exposure); 62.9 ± 4.0 in the data set on UVB induced oedema (1 mg/mouse (1% w/v) topical, applied Day −3); 108.3 ± 5.1 in the data set on UVB induced oedema (1 mg/mouse (1% w/v) topical, applied Day −5). The “Net Ear Swelling” value in data set [3] (0.5% (0.5 mg/mouse) painted within 10 minutes post UVB exposure) was 32.0 10^−2 mm.
With `CCCCCCCCCCCCCCCC(=O)OCC(CO)(CO)NC(=O)CN` [GTP1, Glycine-Tris-Monopalmitate, reference compound], in data set [2], the “cytotoxicity to JURKAT cells (in words)” value is “no activity”.
As for `CCCC(=O)O[C@]1(C(=O)CO)CC[C@H]2[C@@H]3CCC4=CC(=O)CC[C@]4(C)[C@H]3[C@@H](O)C[C@@]21C` [17b-Hydrocortisone, 17-Butyrate-Hydrocortisone, reference compound], the “Net Ear Swelling” value in data set [3] (1% (1 mg/mouse) painted within 10 minutes post UVB exposure) is reported as 38.6 10^−2 mm.

The values are drawn from patent US20030023104A1, “Therapeutic compound - fatty acid conjugates” (COMMONWEALTH SCIENTIFIC AND INDUSTRIAL RESEARCH ORGANISATION, priority 1995, published 2003).
